Laboratory results from ChEMBL document CHEMBL1201862, “PubChem BioAssay data set” (2004).
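All cell lines were grown in 96-well plates and treated with compound for 48 hours. The concentration for 50% growth inhibition is given as GI50.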 Calls of active or inactive are those of the source. No stated cut-off is given here; in the data, active = GI50 up to about 1.1 µM and inactive = higher.

Assays:
Assay in all cases: NCI tumour cell line growth inhibition, 48 h
[1] = test system: A498
[2] = test system: BT-549
[3] = test system: COLO 205
[4] = test system: EKVX
[5] = test system: HCC 2998
[6] = test system: HCT-116
[7] = test system: IGROV-1
[8] = test system: K562
[9] = test system: LOX IMVI
[10] = test system: MCF7
[11] = test system: NCI-H226
[12] = test system: NCI-H23
[13] = test system: PC-3
[14] = test system: RXF 393
[15] = test system: SF-539
[16] = test system: SN12C
[17] = test system: SNB-75
[18] = test system: UO-31
[19] = test system: KM12
[20] = test system: MOLT-4

Compound | GI50 [1] | GI50 [2] | GI50 [3] | GI50 [4] | GI50 [5] | GI50 [6] | GI50 [7] | GI50 [8] | GI50 [9] | GI50 [10] | GI50 [11] | GI50 [12] | GI50 [13] | GI50 [14] | GI50 [15] | GI50 [16] | GI50 [17] | GI50 [18] | GI50 [19] | GI50 [20]
Cc1ccc(-n2cc(-c3ccc(Cl)cc3)c3c2N=CN2N=C(c4cccs4)NC32)cc1 (stereo not given) | 14.7 µM (inactive) | 20.1 µM (inactive) | 6.71 µM (inactive) | 18.1 µM (inactive) | 57 µM (inactive) | 5.13 µM (inactive) | 14.2 µM (inactive) | 11.7 µM (inactive) | 15.7 µM (inactive) | 32.5 µM (inactive) | 19.3 µM (inactive) | 15.3 µM (inactive) | 16.5 µM (inactive) | 12.4 µM (inactive) | 16.2 µM (inactive) | 10.1 µM (inactive) | 8.38 µM (inactive) | 7.64 µM (inactive) | – | –
CC(C)(C)C(=O)Nc1cccc(-c2ccc[nH]2)n1 | > 100 µM (inactive) | > 100 µM (inactive) | > 100 µM (inactive) | > 85.7 µM (inactive) | > 100 µM (inactive) | > 100 µM (inactive) | > 100 µM (inactive) | – | > 100 µM (inactive) | > 100 µM (inactive) | > 100 µM (inactive) | > 100 µM (inactive) | > 100 µM (inactive) | > 100 µM (inactive) | > 100 µM (inactive) | > 100 µM (inactive) | > 60.8 µM (inactive) | > 96.8 µM (inactive) | > 100 µM (inactive) | –
NCCN(CCN(C(=O)Nc1ccccc1)c1ccccc1)C(=O)Nc1ccccc1 | 18.3 µM (inactive) | 22.7 µM (inactive) | 23 µM (inactive) | 23.6 µM (inactive) | 19.8 µM (inactive) | 16.3 µM (inactive) | 17.6 µM (inactive) | 44.4 µM (inactive) | 19.4 µM (inactive) | 19.6 µM (inactive) | 32.2 µM (inactive) | 24.3 µM (inactive) | 24.5 µM (inactive) | 14.7 µM (inactive) | – | 23.2 µM (inactive) | 18.1 µM (inactive) | 15.3 µM (inactive) | – | 35.5 µM (inactive)
CCN(CC)CCOc1ccc(N2Cc3ccccc3C2=O)cc1 | > 10 µM (inactive) | > 10 µM (inactive) | > 10 µM (inactive) | > 10 µM (inactive) | > 10 µM (inactive) | > 10 µM (inactive) | > 10 µM (inactive) | > 10 µM (inactive) | > 10 µM (inactive) | > 10 µM (inactive) | > 10 µM (inactive) | > 10 µM (inactive) | > 10 µM (inactive) | > 10 µM (inactive) | > 10 µM (inactive) | > 10 µM (inactive) | > 10 µM (inactive) | > 10 µM (inactive) | – | > 10 µM (inactive)
COc1ccc(N)c(C(O)CCNC(C)=O)c1 (stereo not given) | > 100 µM (inactive) | > 100 µM (inactive) | > 100 µM (inactive) | > 100 µM (inactive) | – | > 100 µM (inactive) | > 100 µM (inactive) | – | > 100 µM (inactive) | > 100 µM (inactive) | > 100 µM (inactive) | > 100 µM (inactive) | > 100 µM (inactive) | > 100 µM (inactive) | > 100 µM (inactive) | > 100 µM (inactive) | > 100 µM (inactive) | > 100 µM (inactive) | > 100 µM (inactive) | > 100 µM (inactive)
CCOc1ccccc1/N=N/C1C(=O)N(C(=O)CC(=O)Nc2ccccc2C)N=C1C (stereo not given) | 29.2 µM (inactive) | 65.5 µM (inactive) | > 100 µM (inactive) | 0.984 µM (active) | > 100 µM (inactive) | 44.4 µM (inactive) | 45 µM (inactive) | – | > 100 µM (inactive) | > 100 µM (inactive) | > 100 µM (inactive) | 59.7 µM (inactive) | > 100 µM (inactive) | 25.4 µM (inactive) | 56 µM (inactive) | > 100 µM (inactive) | 24.2 µM (inactive) | 27.2 µM (inactive) | > 100 µM (inactive) | > 100 µM (inactive)
